Reference: patent US20120328569A1, “INHIBITORS OF HEPATITIS C VIRUS NS5B POLYMERASE” (priority 2010, published 2012)

tested on: HCV genotype 1b replicon; assay: HCV replicon assay, cell ELISA with antibody to replicon-encoded NS3/4A (genotype 1b replicon); assay type: cell-based, hepatitis C virus; conditions: Hepatitis C virus, 96 h, read-out: 1b IC50(nM), HCV genotype 1b replicon; 96 hours incubation; NS3/4A cell ELISA
How it was run: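 An ELISA on lysed cells, using an antibody against NS3/4A protease, served as the proxy for replicon RNA. Cells had first been exposed for 96 h to serially diluted compound in G418-free conditions. Percent of DMSO control was fitted with a four-parameter function to give IC50.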

Compound | IC50 [nM]
CNC(=O)c1c(-c2ccc(F)cc2)oc2cc(N(CCC(C)(C)C#N)S(C)(=O)=O)c(-c3ccc(OC)c(-c4nc5c(F)cccc5o4)c3)cc12 [Example 733] | 7.78
CNC(=O)c1c(-c2ccc(F)cc2)oc2cc(N(CC3CCS(=O)(=O)C3)S(C)(=O)=O)c(-c3ccc(OC)c(-c4nc5c(F)cccc5o4)c3)cc12 (stereo not drawn) [Example 717] | 2.84
CNC(=O)c1c(-c2ccc(F)cc2)oc2cc(N(C)S(C)(=O)=O)c(-c3ccc(OC)c(-c4nc5c(F)ccc(F)c5o4)c3)cc12 [Example 874] | 2.1
CNC(=O)c1c(-c2ccc(F)cc2)oc2cc(N(C3COC3)S(C)(=O)=O)c(-c3ccc(OC)c(-c4nc5c(F)cc(F)cc5o4)c3)cc12 [Example 721] | 4.94
CNC(=O)c1c(-c2ccc(F)cc2)oc2cc(N(C)S(C)(=O)=O)c(-c3ccc(-c4cnco4)c(-c4nc5c(F)cccc5o4)c3)cc12 [Example 479] | 1.95
CNC(=O)c1c(-c2ccc(F)cc2)oc2cc(N(CC(O)CC#N)S(C)(=O)=O)c(-c3ccc(OC)c(-c4nc5c(F)cc(F)cc5o4)c3)cc12 (stereo not drawn) [Example 819] | 8.3
CNC(=O)c1c(-c2ccc(F)cc2)oc2cc(N(CC(C)(C)F)S(C)(=O)=O)c(-c3ccc(OC)c(-c4nc5c(F)cc(F)cc5o4)c3)cc12 [Example 791] | 28.5
CNC(=O)c1c(-c2ccc(F)cc2)oc2cc(N(C)S(C)(=O)=O)c(-c3csc(-c4nc5c(F)cccc5o4)c3)cc12 [Example 504] | 1.53
CNC(=O)c1c(-c2ccc(F)cc2)oc2cc(N(CC(O)CC#N)S(C)(=O)=O)c(-c3ccc(OC)c(-c4nc5ccccc5o4)c3)cc12 (stereo not drawn) [Example 820] | 5.06
CNC(=O)c1c(-c2ccc(F)cc2)oc2cc(N(Cc3cccnc3)S(C)(=O)=O)c(-c3ccc(OC)c(-c4nc5c(F)cc(F)cc5o4)c3)cc12 [Example 709] | 6.05
CNC(=O)c1c(-c2ccc(F)cc2)oc2cc(N(C3CC(C#N)C3)S(C)(=O)=O)c(-c3cccc(-c4nc5ncccc5o4)c3)cc12 (stereo not drawn) [Example 739] | 2.17

same assay, conditions: Hepatitis C virus, 96 h, read-out: Replicon 1b IC50 (nM), HCV genotype 1b replicon cells, 96 hours incubation, NS3/4A ELISA readout

Compound | IC50 [nM]
CNC(=O)c1c(-c2ccc(F)cc2)oc2cc(N(C)S(C)(=O)=O)c(-c3ccc(Cl)c(-c4nc5c(F)cccc5o4)c3)cc12 [Example 405] | 4.7
CNC(=O)c1c(-c2ccc(F)cc2)oc2cc(N(C)S(C)(=O)=O)c(-c3ccc(OC)c(-c4nc5cncnc5[nH]4)c3)cc12 [Example 344] | 2.2
CNC(=O)c1c(-c2ccc(F)cc2)oc2cc(N(C)S(C)(=O)=O)c(-c3cccc(-c4cc5ccccc5[nH]4)c3)cc12 [Example 366, 5-(3-(1H-indol-2-yl)phenyl)-2-(4-fluorophenyl)-N-methyl-6-(N-methylmethylsulfonamido)benzofuran-3-carboxamide] | 4.2
CNC(=O)c1c(-c2ccc(F)cc2)oc2cc(N(CCN(C)C)S(C)(=O)=O)c(-c3cccc(-c4nc5ncccc5o4)c3)cc12 [Compound 398] | 2.4
CNC(=O)c1c(-c2ccc(F)cc2)oc2cc(N(Cc3cccc(F)c3)S(C)(=O)=O)c(-c3ccccc3)cc12 [Example 53, 6-[(3-fluorobenzyl)(methyl-sulfonyl)amino]-2-(4-fluorophenyl)-N-methyl-5-phenyl-1-benzofuran-3-carboxamide] | 373
CNC(=O)c1c(-c2ccc(F)cc2)oc2cc(N(C)S(C)(=O)=O)c(-c3ccc(OC)c(-c4nc5ccccc5s4)c3)cc12 [Example 144, 5-[3-(1,3-benzothiazol-2-yl)-4-methoxyphenyl]-2-(4-fluorophenyl)-N-methyl-6-[methyl (methylsulfonyl)amino]-1-benzofuran-3-carboxamide] | 11
CNC(=O)c1c(-c2ccc(F)cc2)oc2cc(N(C)S(C)(=O)=O)c(-c3ccc(OC(F)(F)F)c(-c4nc5ccccc5o4)c3)cc12 [Example 179] | 7.2
CNC(=O)c1c(-c2ccc(F)cc2)oc2cc(N(C)S(C)(=O)=O)c(-c3cccc(-c4nc5cnccc5o4)c3)cc12 [Example 211] | 3.3
CNC(=O)c1c(-c2ccc(F)cc2)oc2cc(N(C)S(C)(=O)=O)c(-c3ccccc3)cc12 [Example 1, 2-(4-fluorophenyl)-N-methyl-6-[methyl(methylsulfonyl)amino]-5-phenyl-1-benzofuran-3-carboxamide] | 120
CNC(=O)c1c(-c2ccc(F)cc2)oc2cc(N(C)S(C)(=O)=O)c(-c3cccc(-c4nc5ncncc5o4)c3)cc12 [Example 241] | 9.5
CNC(=O)c1c(-c2ccc(F)cc2)oc2cc(N(C)S(C)(=O)=O)c(-c3cccc(-c4nc5ncc(Cl)cc5o4)c3)cc12 [Example 202] | 1
CONC(=O)c1c(-c2ccc(F)cc2)oc2cc(N(C)S(C)(=O)=O)c(-c3cccc(F)c3)cc12 [Example 95, 5-(3-fluorophenyl)-2-(4-fluorophenyl)-N-methoxy-6-[methyl (methylsulfonyl)amino]-1-benzofuran-3-carboxamide] | 130
CNC(=O)c1c(-c2ccc(F)cc2)oc2cc(N(C)S(C)(=O)=O)c(-c3cc(F)cc(-c4nc5cccc(Cl)c5o4)c3)cc12 [Example 164] | 16.5
CNC(=O)c1c(-c2ccc(F)cc2)oc2cc(N(C)S(C)(=O)=O)c(-c3cccc(-c4nc5ccc(NS(=O)(=O)c6ccccc6)cc5o4)c3)cc12 [Example 284] | 5.3
CNC(=O)c1c(-c2ccc(F)cc2)oc2cc(N(C)S(C)(=O)=O)c(-c3cccc(-c4nc5ccc(C)cc5o4)c3)cc12 [Example 174] | 10.4
CNC(=O)c1c(-c2ccc(F)cc2)oc2cc(N(C)S(C)(=O)=O)c(-c3cccc(-c4nc5ccc(OC)nc5s4)c3)cc12 [Example 251] | 4
CNC(=O)c1c(-c2ccc(F)cc2)oc2cc(N(C)S(C)(=O)=O)c(-c3ccc(F)c(-c4nc5ccccc5[nH]4)c3)cc12 [Example 300] | 1.5
CNC(=O)c1c(-c2ccc(F)cc2)oc2cc(N(C)S(C)(=O)=O)c(-c3cccc(-c4nc5ccccc5n4C)c3)cc12 [Example 332] | 9.6
CNC(=O)c1c(-c2ccc(F)cc2)oc2cc(N(C)S(C)(=O)=O)c(-c3cc(OC)cc(-c4nc5cccnc5s4)c3)cc12 [Example 249] | 2.2
CNC(=O)c1c(-c2ccc(F)cc2)oc2cc(N(C)S(C)(=O)=O)c(-c3ccc(OC(C)C)cc3)cc12 [Example 109, 2-(4-fluorophenyl)-N-methyl-6-[methyl(methylsulfonyl)amino]-5-[4-(propan-2-yloxy)phenyl]-1-benzofuran-3-carboxamide] | 216
CNC(=O)c1c(-c2ccc(F)cc2)oc2cc(N(C)S(C)(=O)=O)c(-c3cccc(-c4nc5nccnc5[nH]4)c3)cc12 [Example 336] | 2.7
CNC(=O)c1c(-c2ccc(F)cc2)oc2cc(N(C)S(C)(=O)=O)c(-c3cccc(-c4nc5cccc(C#N)c5s4)c3)cc12 [Example 295] | 4.1
CNC(=O)c1c(-c2ccc(F)cc2)oc2cc(N(C)S(C)(=O)=O)c(-c3cccc(-c4nc5ccc(NC(C)=O)cc5o4)c3)cc12 [Example 282] | 2.3
CNC(=O)c1c(-c2ccc(F)cc2)oc2cc(N(C)S(C)(=O)=O)c(-c3cccc(-c4[nH]c5ccccc5c4Cl)c3)cc12 [Example 381] | 5.1

same assay, conditions: read-out: 1b IC50; HCV genotype 1b replicon; 96 hours incubation; NS3/4A cell ELISA

Compound | IC50 [nM]
CNC(=O)c1c(-c2ccc(F)cc2)oc2cc(N(CCF)S(C)(=O)=O)c(-c3cccc(-c4nc5ncccc5o4)c3)cc12 [Example 581] | 0.5
